Laboratory results from patent US11560545B2, “Polymeric carriers and methods” (The Brigham and Women's Hospital, Inc., priority 2017, dated 2023).

Key:
3T3 fibroblasts = test: in vitro cytotoxicity by MTT assay; type: cell-based
[1] = tested on: human mesenchymal stem cells (hMSC); test: DTT / digestion solution cytotoxicity to hMSC; type: cell-based; conditions: short exposure (<30 minutes), high concentration of DTT (50 mM)
Description: Also, the DTT cytotoxicity to human mesenchymal stem cells (hMSC) was studied, as depicted at FIG. 3C. […], hMSC presented low viability—80% to 85%—at the high concentration of DTT (50 mM).

hMSCs = test: cell viability after full digestion with digestion agents; conditions: 0.015 M sodium citrate solutions
Description: The cell viability was calculated after full digestion due to the concern of potential cytotoxicity from the digestion agents.

SMILES	cytotoxicity (MTT) (3T3 fibroblasts; 50 mM DTT solution)	cytotoxicity (MTT) (3T3 fibroblasts; low concentration 1 mM, compared to DPBS)	cytotoxicity (MTT) (3T3 fibroblasts; working concentration 10 mM, compared to DPBS)	hMSC tolerance [1]	cytotoxicity to hMSCs (hMSCs)
O[C@H](CS)[C@H](O)CS (racemic) [DTT, dithiothreitol]	significant cytotoxicity	no significant cytotoxicity	no significant cytotoxicity	tolerant	–
O=C([O-])CC(O)(CC(=O)[O-])C(=O)[O-].[Na+].[Na+].[Na+] [sodium citrate]	–	–	–	–	certain level of cytotoxicity
